Where a SMILES comes first, the peptide text is derived from it. The star is where a group is joined. Propyl(2R-PamO,3-PamO) = CCCCCCCCCCCCCCCC(=O)OC[C@H](C*)OC(=O)CCCCCCCCCCCCCCC; Palmitoyl = CCCCCCCCCCCCCCCC(=O)*
How the values were obtained:
RAW γNO(−) cells = experiment: TNF-α and IFN-β production by mouse macrophages (Example 3); format: cell-based; details: best-fit values (Prism)
Description: After 5 hours, the supernatants were harvested and examined for mouse TNF-α and IFN-β using commercial or in-house developed capture ELISA assays, respectively.

RAW 264.7 γNO(−) cells = experiment: TNF-α and IFN-β assays in macrophages (Example 6); format: cell-based, mouse; details: 5.5 h
Description: To examine cytokine production, mouse macrophages (RAW γNO(−) cells) were exposed over a wide range of concentrations to compounds 21-24, E. coli 055:B5 LPS and prototypic E. coli bisphosphoryl lipid A (Zhang, J. Am. Chem. Soc. 2007, 129, 5200-5216). After 5.5 h, the supernatants were harvested and examined for mouse TNF-α and IFN-β using commercial or in-house developed capture ELISAs, respectively (FIG. 6). […] The reduced efficacy of compounds 21 and 23 is probably a beneficial property, because LPS can over-activate the innate immune system leading to symptoms of septic shock.
RAW 264.7 γNO(−) cells were plated on the day of the exposure assay as 2×10^5 cells/well in 96-well plates (Nunc) and incubated with different stimuli for 5.5 h in the presence or absence of polymyxin B. Culture supernatants were collected and stored frozen (−80° C.) until assayed for cytokine production. Concentrations of TNF-α were determined using the TNF-α DuoSet ELISA Development kit from R&D Systems. Concentrations of IFN-β were determined as follows. ELISA MaxiSorp plates were coated with rabbit polyclonal antibody against mouse IFN-β (PBL Biomedical Laboratories). IFN-β in standards and samples was allowed to bind to the immobilized antibody. Rat anti-mouse IFN-β antibody (USBiological) was then added, producing an antibody-antigen-antibody “sandwich”. Next, horseradish peroxidase (HRP) conjugated goat anti-rat IgG (H+L) antibody (Pierce) and a chromogenic substrate for HRP 3,3′,5,5′-tetramethylbenzidine (TMB; Pierce) were added. After the reaction was stopped, the absorbance was measured at 450 nm with wavelength correction set to 540 nm. Concentration-response data were analyzed using nonlinear least-squares curve fitting in Prism (GraphPad Software, Inc.). […] The Hill slope was set at 1 to be able to compare the EC50 values of the different inducers. All cytokine values are presented as the means±SD of triplicate measurements, with each experiment being repeated three times.

[1] = system: GSTPVS(β-O-GlcNAc)SANM (BSA-MI-66 conjugate); set-up: species or system BALB/c mice; details: mouse, in vivo

Compound: CCCCCCCCCCCCCCCC(=O)OC[C@H](CSC[C@H](N)C(=O)N[C@@H](CO)C(=O)N[C@@H](CCCCN)C(=O)N[C@@H](CCCCN)C(=O)N[C@@H](CCCCN)C(=O)N[C@@H](CCCCN)C(=O)O)OC(=O)CCCCCCCCCCCCCCC [Pam2CysSK4, S—[(R)-2,3-bis(palmitoyloxy)-propyl]-(R)-cysteinyl-(S)-seryl-(S)-lysine-(S)-lysine-(S)-lysine-(S)-lysyne] (H-C(Propyl(2R-PamO,3-PamO))SKKKK-OH; C-terminus assumed)
- Emax for TNF-α production (RAW γNO(−) cells): 631 pg/mL

Compound: CCCCCCCCCCCCCCCC(=O)N[C@@H](CSC[C@@H](COC(=O)CCCCCCCCCCCCCCC)OC(=O)CCCCCCCCCCCCCCC)C(=O)N[C@@H](CO)C(=O)N[C@@H](CCCCN)C(=O)N[C@@H](CCCCN)C(=O)N[C@@H](CCCCN)C(=O)N[C@@H](CCCCN)C(=O)O [Pam3CysSK4, N-palmitoyl-S—[(R)-2,3-bis(palmitoyloxy)-propyl]-(R)-cysteinyl-(S)-seryl-(S)-lysine-(S)-lysine-(S)-lysine-(S)-lysyne] (Palmitoyl-C(Propyl(2R-PamO,3-PamO))SKKKK-OH)
- Emax for TNF-α production (RAW γNO(−) cells): 932 pg/mL
- IFN-β secretion (RAW 264.7 γNO(−) cells): none of the compounds induced the production of INF-β
- TNF-α secretion (RAW 264.7 γNO(−) cells): induced secretion of TNF-α with similar efficacies and potencies

Compound: Pam3CysSK4G-C-KLFAVWKITYKDT-G-GSTPVS(β-O-GluNAc)SANM [Compound 52]
- IgG1 titer (anti-GSTPVS(β-O-GlcNAc)SANM) [1]: 61,400
- IgG2a titer (anti-GSTPVS(β-O-GlcNAc)SANM) [1]: 33,200
- IgG2b titer (anti-GSTPVS(β-O-GlcNAc)SANM) [1]: 12,500
- IgG3 titer (anti-GSTPVS(β-O-GlcNAc)SANM) [1]: 69,400
- IgG total titer (anti-GSTPVS(β-O-GlcNAc)SANM) [1]: 76,500
- IgM titer (anti-GSTPVS(β-O-GlcNAc)SANM) [1]: 81,900

Compound: Pam3CysSK4G-C-KLFAVWKITYKDT-G-GSTPVS(β-S-GluNAc)SANM [Compound 53]
- IgG1 titer (anti-GSTPVS(β-O-GlcNAc)SANM) [1]: 111,800
- IgG2a titer (anti-GSTPVS(β-O-GlcNAc)SANM) [1]: 55,600
- IgG2b titer (anti-GSTPVS(β-O-GlcNAc)SANM) [1]: 21,300
- IgG3 titer (anti-GSTPVS(β-O-GlcNAc)SANM) [1]: 111,700
- IgG total titer (anti-GSTPVS(β-O-GlcNAc)SANM) [1]: 151,600
- IgM titer (anti-GSTPVS(β-O-GlcNAc)SANM) [1]: 21,900

Compound: monophosphoryl lipid A [Compound 24]
- IFN-β secretion (RAW 264.7 γNO(−) cells): stimulated the cells to produce TNF-α and INF-β
- TNF-α secretion (RAW 264.7 γNO(−) cells): stimulated the cells to produce TNF-α and INF-β

Reference: patent US20150299290A1, “IMMUNOGENIC VACCINE” (University of Georgia Research Foundation, Inc., priority 2010, published 2015)
